The test system of this data set is CD19 CAR-T cells co-cultured with Raji or K562/CD19+ target cells. In words: CD19 CAR-T cell viability and effector function in the presence of GSI. In kind it is cell-based, human. How it is done: (A) CD19 staining of K562 CD19^+ and Raji cells that were cultured with or without GSI for ±12-16 h. Isotype control shown as gray line.
(C) CD19 CAR-T cells were co-cultured with K562/CD19 target cells in media containing various concentrations of RO4929097. RO4929097 inhibits CD19 CAR-T cell effector function at concentrations of 3 μM when co-cultured, as determined by measuring IL-2 (upper panel) and IFNγ (lower panel) production.
(D) IL-2 production by CD19 CAR-T cells cultured with target cells in the presence of increasing concentrations of GSI RO4929097.
(E) IL-2 production by CD19 CAR-T cells cultured with target cells (“K562 CD19”) or control cells (“KS562 BCMA”) in the presence of increasing concentrations of GSI RO4929097. Cells were administered the indicated amounts of the GSI and then washed (empty bars) or not (filled bars).
(F) Data from another experiment showing IL-2 production by CD19 CAR-T cells after overnight co-culture with K562 BCMA^+ or K562 CD19^+ cells following pre-incubation with varying concentrations of GSI. After washing, GSI was either added back in (+/+) or left out of the co-culture (+/−) to assess the reversibility of cytokine production.
(G) Specific lysis, by CD19 CAR-T cells, of the indicated target or control cells in the presence of GSI RO4929097.
(H) Proliferation of CD19 CAR-T cells cultured with CD19-expressing target cells in the presence or absence of GSI or with control cells in the absence of GSI. Cells were stained with CFSE and proliferation was measured by flow cytometry.
(I) Graphic representation of the number of cell divisions of CD19 CAR-T cells in the presence of the indicated concentrations of GSI RO4929097. The width of the horizontal bars represents the proportion of CAR-T cells in culture that divided the indicated number of generations (i.e., 5, 4, 3, 2, 1, or 0 generations) over the course of the experiment.
[…] Cell counts (CD8 staining) during expansion of CD19-specific CAR-T cells with CD19^+ TM LCL cells and exogenous IL-2 in the absence of GSI (circle) or the presence of GSI at 0.5 μM (square) or 5 μM (triangle).
(K) Cell counts of CD19-specific CAR-T cells (CD4:CD8 (1:1) expanded with CD19^+ TM. LCL cells in the absence or presence of GSI as indicated, but without the addition of exogenous IL-2.
(L) IFN-γ concentrations in supernatants of GSI-expanded anti-CD19 CAR CD8^+ T cells following re-stimulation with K562 cells (no antigen), K562 CD19^+ cells, or Raji cells.
(M, N) Production of IFN-γ (M) and IL-2 (N) by the CD4:CD8 anti-CD19 CAR-T cell mixture following re-stimulation with the indicated cell lines in the absence of GSI or the presence of either 0.5 μM or 5 μM GSI.
Without wishing to be bound by theory, a potential caveat of using GSI to augment BCMA on myeloma cells to improve CAR-T cell recognition is that high concentrations of GSI may inhibit T-cell signaling and effector functions. See Eagar et al., Immunity 20(4):407, 2004. To evaluate potential effects of GSI on CAR T cells in a setting where target ligand expression remains stable, CD19 CAR-T cells were co-cultured with Raji or K562/CD19^+ target cells in the presence of GSI (0.01 μM to 100 μM) and measured viability and effector function. Over this concentration range there was no effect on CD19 antigen expression (FIG. 5A) or on CAR-T cell viability after 24 hours (FIG. 5B). […] However, the ability of the CD19 CAR-T cells to specifically kill target cells was not affected by GSI concentration (FIG. 5G). […] To further investigate the dosage effect of GSI on CAR-T cell division, a dose titration of GSI RO4929097 was added to co-cultures of CD19 CAR-T and target cells.

Setting [1] is: expanded in 5 μM, 0.5 μM or no GSI.

Consider `CC(C)(C(=O)NCC(F)(F)C(F)(F)F)C(=O)N[C@@H]1C(=O)Nc2ccccc2-c2ccccc21` [RO4929097], for which, under “10 μM GSI vs absence of GSI”, the “proliferation of CD19 CAR-T cells in response to target cells” value is given as “less effectively”. The “expansion of CD19 CAR-T cells” value (8 days in culture with or without exogenous IL-2, GSI 0.5 or 5 μM) is given as “did not show a decrease in expansion”. Moreover, the “CD19 antigen expression on target cells” value (GSI 0.01 μM to 100 μM) is “no effect”. Moreover, the CAR-T cell viability result (GSI 0.01 μM to 100 μM, 24 hours) is “no effect”. In addition, the “T cell function (cytokine production, cell lysis activity, proliferation)” value (GSI at therapeutic levels) is on record as “does not affect T cell function”. Under setting [1], the “IFN-γ production on re-stimulation after expansion in GSI” value is on record as “did not show a significant difference”. Moreover, the “IL-2 production on re-stimulation after expansion in GSI” value under setting [1] was “not markedly different”. The CAR-T cell division result reads like this: (non-therapeutic dose (10 μM)) “detectably inhibit proliferation”; (therapeutic doses of GSI (0.01 μM-1 μM)) “essentially unaffected or only slightly affected”. Where the note is “range of GSI concentrations”, the “specific killing of target cells by CD19 CAR-T cells” value is given as “not affected”.

(Values after patent US11845803B2, “Combination therapies for treatment of BCMA-related cancers and autoimmune disorders” (Fred Hutchinson Cancer Center, priority 2017, dated 2023).)
